Measurements as given in patent US6376747B1, “Plant-derived map kinase kinase” (Her Majesty the Queen in right of Canada as represented by …, priority 1999, dated 2002).
Like-named read-outs stand apart in the source and are kept apart here.

What was measured:
[1] = system: tMEK2^MUT-induced gene activation (PR1b1, PR3, Twi1, ER5); test: Effect of MAPK inhibitors on tMEK2^MUT-induced gene activation in tomato protoplasts; assay type: cell-based, Tomato (Lycopersicon esculentum cv Bonny Best); conditions: for effect on tMEK2^MUT-activated PR3 and ER5 genes / effect on tMEK2^MUT-activated PRlbl or Twi1 genes: 350 nM for SB 202190, 1 μM for SB 203580 in protoplast incubation buffer (FIG. 6); for effect on all four genes previously activated by tMEK2^MUT: inhibitor at 1 μM in protoplast incubation buffer, genes PR1b1, PR3, Twi1, ER5 (FIG. 6)
Experimental: Kinase inhibitors at the concentration of 1 μM for staurosporine, 350 nM for SB 202190 and 1 μM for PD 98059, SB 203580 and SB 202474 were included in the proteoplast incubation buffer.
The protoplasts were resuspended in electroporation buffer containing 150 mM MgCl2 and 0.4 M mannitol at a density of 1×10^6 protoplasts/ml and co-electroporated with […] of pTZ19 carrying tMEK2 gene and pJD300 carrying luciferase gene in a total volume of 500 μl as described by Leckie (1994) with some modifications. Electroporation was performed at 200 volts and 100 μF (Gene Pulser II, Bio-Rad). Protoplasts were then allowed to recover on ice in the dark for 10 min followed by centrifugation at 500 g for 5 min. After removal of the supernatant, the protoplast pellet, with about 500 μl of buffer, was supplemented with another 500 μl protoplast incubation buffer. Protoplasts were incubated in the dark at 30° C. for 24 hr.
(§1) Kinase inhibitors (CalBiochem, San Diego, Calif.) at the concentration of 1 μM for staurosporine, 350 nM for SB 202190 and 1 μM for PD 98059, SB 203580 and SB 202474, when applicable, were included in the protoplast incubation buffer.
RT-PCR was as described above. The number of PCR cycles corresponded to the high end of the range in which a linear increase in products could be detected (generally 14-16 cycles were used). Reaction products were separated on 1.0% agarose gels. Southern blot analysis was used to estimate levels of specific amplified products. Equivalence of cDNA in different samples was verified using PCR reactions for actin. Primers were designed for PCR according to published sequences for tomato PR-lbl, chitinase, Twit, ER5 and actin (Tornero et al., 1997; Danhash et al., 1993; O'Donnell et al., 1998; Zegzoutti et al. 1997; Moniz de Sa and Drouin, 1996).
To study divergence of the signal pathways downstream of tMEK2 the influence of […] expression in tomato protoplasts was examined in the presence of a broad protein kinase inhibitor (staurosporine) and inhibitors specific to the p38 class MAPK (SB 202190 or SB 203580). Staurosporine inhibited all four genes that were previously activated by tMEK2^MUT; whereas, inhibitors of p38 class MAPK inhibited the PR3 and ER5 genes but not PRlbl or Twi1. […] The results, shown in FIG. 6, are consistent with the divergence of signal pathway downstream of tMEK2. One of these pathways could include a p38 class MAPK.

myelin basic protein [2] = system: myelin basic protein
[3] = system: tomato leaf mesophyll protoplasts; test: Protoplast viability in the presence of kinase inhibitors; assay type: cell-based, Tomato (Lycopersicon esculentum cv Bonny Best); conditions: 1 μM staurosporine, 350 nM SB 202190, 1 μM PD 98059, SB 203580 and SB 202474; data not shown
Experimental: as §1

myelin basic protein [4] = biological target: myelin basic protein; remark: listed apart in the source
[5] = system: PR1b1, PR3 (chitinase) and Twi1 genes; test: Tomato protoplast transient expression, quantitative RT-PCR of pathogenesis-related genes; assay type: cell-based, Tomato (Lycopersicon esculentum cv Bonny Best); conditions: transient expression driven by tCUPΔ promoter after electroporation, 24 hr incubation, quantitative RT-PCR (FIG. 4)
From the text: To examine the effects of tMEK2^WT and tMEK2^MUT on the activation of pathogenesis-related (PR) or other pathogen-inducible genes a tomato protoplast transient expression system was developed. Chimeric genes, tCUPΔ-tMEK2^WT-nos and tCUPΔ-tMEK2^MUT-nos, were constructed using the storing constitutive promoter, tCUPΔ, which was derived from the tCUP promoter as by modification of the mRNA leader sequence described above. After electroporation, transient expression of potential target genes was detected by quantitative RT-PCR. The genes analysed included PRlbl, which is activated by tomato mosaic virus (Tornero et al., 1997); PR3 (chitinase), which is activated during an incompatible C. fulvam-tomato interaction (Danhash et al., 1993); and Twi, which is a pathogen- and would-inducible gene recently identified in tomato (O'Donnell, et al., 1998).
Tomato (Lycopersicon esculentum cv Bonny Best) were grown at 80% relative humidity in peat soil in growth cabinets programmed for 16 hr days at 25° C. and 8 hr nights at 22° C. Light intensity was controlled at 25 pE m-2 S-1 emitted from “cool white” fluorescent lamps (Philip Canada, Scarborough, Ontario). […]
(§2) RT-PCR was as described above. The number of PCR cycles corresponded to the high end of the range in which a linear increase in products could be detected (generally 14-16 cycles were used). […]

ER5 gene = test: Tomato protoplast transient expression, quantitative RT-PCR of wound-inducible gene ER5; assay type: cell-based, Tomato (Lycopersicon esculentum cv Bonny Best); conditions: transient expression in tomato protoplasts, quantitative RT-PCR (FIG. 5b)
Experimental: Tomato (Lycopersicon esculentum cv Bonny Best) were grown at 80% relative humidity in peat soil in growth cabinets programmed for 16 hr days at 25° C. and 8 hr nights at 22° C. Light intensity was controlled at 25 pE m-2 S-1 emitted from “cool white” fluorescent lamps (Philip Canada, Scarborough, Ontario). The youngest fully expanded leaves were surface sterilized for 5 min in 4% sodium hypochlorite and rinsed three times with sterile water. The lower epidermis was gently rubbed with Carborundum, rinsed with sterile water and leaf fragments of ca. 1 cm^2 were floated with exposed surface facing an enzyme solution containing 0.15% macerozyme R10 (Yakult Honsha Co., Japan), 0.3% Cellulase “Onozuka” Rio (Yakult Honsha Co., Japan), 0.4 M sucrose in K3 medium (Maliga et. al., 1973). After overnight incubation at 30° C., the enzyme-protoplast mixture was filtered through a 100 μm nylon sieve, centrifuged at 500 g for 5 min. and floated protoplasts were collected and washed twice with W5 medium (Maliga et.al., 1973). The protoplasts were kept on ice in W5 medium for 2 hr before transformation. […]
as §2

Oc1ccc(-c2nc(-c3ccc(F)cc3)c(-c3ccncc3)[nH]2)cc1 [SB 202190]
effect on tMEK2^MUT-activated PR3 and ER5 genes [1]: inhibited | effect on tMEK2^MUT-activated PRlbl or Twi1 genes [1]: not

GST-tMEK2^MUT (recombinant glutathione-S-transferase fusion of tMEK2 with serine221 and threonine226 replaced with aspartic acid)
substrate phosphorylation (in vitro kinase assay, SDS-PAGE, autoradiography) (myelin basic protein [2]): Both the wild type and mutant forms of the tMEK2 enzyme phosphorylated myelin basic protein (MPB) in vitro

CCc1nc(-c2ccc(OC)cc2)[nH]c1-c1ccncc1 [SB202474]
effect on all four genes previously activated by tMEK2^MUT [1]: no effects | change of protoplast viability [3]: did not change

COc1cccc(-c2cc(=O)c3ccccc3o2)c1N [PD 98059]
effect on all four genes previously activated by tMEK2^MUT [1]: no effects

CN[C@@H]1C[C@H]2O[C@@](C)([C@@H]1OC)n1c3ccccc3c3c4c(c5c6ccccc6n2c5c31)C(=O)NC4 [Staurosporine, staurosporine]
effect on all four genes previously activated by tMEK2^MUT [1]: inhibited | change of protoplast viability [3]: did not change

C[S+]([O-])c1ccc(-c2nc(-c3ccc(F)cc3)c(-c3ccncc3)[nH]2)cc1 (centres unmarked) [SB 203580]
effect on tMEK2^MUT-activated PR3 and ER5 genes [1]: inhibited | effect on tMEK2^MUT-activated PRlbl or Twi1 genes [1]: not | change of protoplast viability [3]: did not change

B1: GST-tMEK2^WT (recombinant glutathione-S-transferase fusion of wild type tomato cv. Bonny Best MAP kinase kinase tMEK2) (protein)
chain: MKKGSFAPNLKLSLPPPDEVALSKFLTESGTFKDGDLLVNRDGVRIVSQSEVAAPSVIQPSDNQLCLADFEAVKVIGKGNGGIVRLVQHKWTGQFFALKVIQMNIDESMRKHIAQELRINQSSQCPYVVICYQSFFDNGAISLILEYMDGGSLADFLKKVKTIPERFLAVICKQVLKGLWYLHHEKHIIHRDLKPSNLLINHRGDVKITDFGVSAVLASTSGLANTFVGTYNYMSPERISGGAYDYKSDIWSLGLVLLECATGHFPYKPPEGDEGWVNVYELMETIVDQPEPCAPPDQFSPQFCSFISACVQKHQKDRLSANDLMSHPFITMYDDQDIDLGSYFTSAGPPLATLTEL
substrate phosphorylation (in vitro kinase assay, SDS-PAGE, autoradiography) (myelin basic protein [4]): Both the wild type and mutant forms of the tMEK2 enzyme phosphorylated myelin basic protein (MPB) in vitro

B2: tMEK2^WT: wild type MAPKK gene tMEK2 isolated from tomato cv. Bonny Best, expressed from tCUPΔ promoter (protein)
chain: MKKGSFAPNLKLSLPPPDEVALSKFLTESGTFKDGDLLVNRDGVRIVSQSEVAAPSVIQPSDNQLCLADFEAVKVIGKGNGGIVRLVQHKWTGQFFALKVIQMNIDESMRKHIAQELRINQSSQCPYVVICYQSFFDNGAISLILEYMDGGSLADFLKKVKTIPERFLAVICKQVLKGLWYLHHEKHIIHRDLKPSNLLINHRGDVKITDFGVSAVLASTSGLANTFVGTYNYMSPERISGGAYDYKSDIWSLGLVLLECATGHFPYKPPEGDEGWVNVYELMETIVDQPEPCAPPDQFSPQFCSFISACVQKHQKDRLSANDLMSHPFITMYDDQDIDLGSYFTSAGPPLATLTEL
modifications: left off: a dimerising Fc or GST
activation of tomato PRlbl, chitinase and Twil genes [5]: no effect | activation of ER5 gene (ER5 gene): did not
